Measured values as given in patent US20220054463A1, “METHODS OF TREATING ANEURYSMS” (University of Pittsburgh-of the Commonwealth System of …, priority 2020, published 2022).

What was measured:
[1] = test system: murine intracranial aneurysms; test: Mouse intracranial aneurysm model (aneurysm formation); format: in vivo, mouse (C57BL/6)
Description: Mouse Intracranial Aneurysm Model. Murine intracranial aneurysms were created in female 8-12 week-old C57BL/6 mice (Charles River Laboratories, Wilmington, Mass.) using a method described previously (Hosaka et al., Journal of neurointerventional surgery. 2014; 6:474-9). Briefly, the left common carotid artery and the right renal artery were ligated to induce hypertension. One week later, an Alzet micro-osmotic pump model 1004 (DURECT Corp, Cupertino, Calif.) was implanted subdermally to deliver Angiotensin II (Bachem AG, Switzerland) at 1000 ng/kg/min. 10 μL of 0.8% porcine elastase (Worthington Biochemical Corp, Lakewood, N.J.) in normal saline was injected into the right basal cistern using stereotactic coordinates: 1.2 mm rostral of bregma, 0.7 mm lateral of midline and 5.3 mm ventral of the dorsal aspect of the skull. The animals were fed a hypertensive diet with 8% NaCl and 0.12% BAPN (TEKLAD). Clopidogrel was administered at 1 mg/kg in normal saline via intraperitoneal injection every two days. Reparixin was administered at 10 mg/kg in normal saline via intraperitoneal injection every two days. PBS-treated animals received 10 μL injection of phosphate buffered saline subcutaneously every two days. […] Each Circle of Willis was examined by a blinded observer and aneurysm formation was recorded (yes/no). […]

[2] = test system: cytokines (inflammatory profile); test: Cytokine arrays in aneurysm-induced cerebral vasculature; format: in vivo, mouse; settings: aneurysmal mice, 2 versus 3 weeks; FIG. 5
Description: Mouse Intracranial Aneurysm Model. Murine intracranial aneurysms were created in female 8-12 week-old C57BL/6 mice (Charles River Laboratories, Wilmington, Mass.) using a method described previously (Hosaka et al., Journal of neurointerventional surgery. 2014; 6:474-9). Briefly, the left common carotid artery and the right renal artery were ligated to induce hypertension. One week later, an Alzet micro-osmotic pump model 1004 (DURECT Corp, Cupertino, Calif.) was implanted subdermally to deliver Angiotensin II (Bachem AG, Switzerland) at 1000 ng/kg/min. 10 μL of 0.8% porcine elastase (Worthington Biochemical Corp, Lakewood, N.J.) in normal saline was injected into the right basal cistern using stereotactic coordinates: 1.2 mm rostral of bregma, 0.7 mm lateral of midline and 5.3 mm ventral of the dorsal aspect of the skull. The animals were fed a hypertensive diet with 8% NaCl and 0.12% BAPN (TEKLAD). Clopidogrel was administered at 1 mg/kg in normal saline via intraperitoneal injection every two days. Reparixin was administered at 10 mg/kg in normal saline via intraperitoneal injection every two days. PBS-treated animals received 10 μL injection of phosphate buffered saline subcutaneously every two days. […] In addition, cytokines were analyzed in human cerebral aneurysm, superficial temporal artery, and peripheral intravenous blood specimens that were collected at the time of surgery.

Row | Compound | mice developing aneurysms ([1]; 1 mg/kg clopidogrel, controls 59%, p<0.001, FIG. 3A) [%] | attenuation of inflammatory profile (temporal dynamics of 96 cytokines) [2] | mice developing aneurysms ([1]; 10 mg/kg reparixin, PBS:DMSO treated control mice 59%, p=0.0163, FIG. 3B) [%]
1 | COC(=O)[C@H](c1ccccc1Cl)N1CCc2sccc2C1 [clopidogrel] | 0 | moderate response | –
2 | CC(C)Cc1ccc([C@@H](C)C(=O)NS(C)(=O)=O)cc1 [reparixin] | – | robust anti-inflammatory effects | 14
